Format in all cases: biochemical
For one test, the target named is T1, Lck (Homo sapiens, UniProt P06239).
T1 construct: Kinases are expressed as either kinase domains or full length constructs; made in house
As to the kind of experiment: Kinase inhibition assay (33P transfer), Lck. The note with it: read-out: Lck-1. An outline of the steps: (§1)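 Steps: express kinase as GST or polyHistidine fusion in E. coli or High Five cells; optionally co-express or mix with regulatory polypeptides; incubate with 33P-ATP and plate-attached poly(Glu,Tyr) 4:1 or poly(Arg,Ser) 3:1; wash with 0.5% phosphoric acid; count by liquid scintillation.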

The next test has as its target T2, Zap-70 (Homo sapiens, UniProt P43403).
T2 construct: Kinases are expressed as either kinase domains or full length constructs; made in house
T2 sequence (P43403 1-619): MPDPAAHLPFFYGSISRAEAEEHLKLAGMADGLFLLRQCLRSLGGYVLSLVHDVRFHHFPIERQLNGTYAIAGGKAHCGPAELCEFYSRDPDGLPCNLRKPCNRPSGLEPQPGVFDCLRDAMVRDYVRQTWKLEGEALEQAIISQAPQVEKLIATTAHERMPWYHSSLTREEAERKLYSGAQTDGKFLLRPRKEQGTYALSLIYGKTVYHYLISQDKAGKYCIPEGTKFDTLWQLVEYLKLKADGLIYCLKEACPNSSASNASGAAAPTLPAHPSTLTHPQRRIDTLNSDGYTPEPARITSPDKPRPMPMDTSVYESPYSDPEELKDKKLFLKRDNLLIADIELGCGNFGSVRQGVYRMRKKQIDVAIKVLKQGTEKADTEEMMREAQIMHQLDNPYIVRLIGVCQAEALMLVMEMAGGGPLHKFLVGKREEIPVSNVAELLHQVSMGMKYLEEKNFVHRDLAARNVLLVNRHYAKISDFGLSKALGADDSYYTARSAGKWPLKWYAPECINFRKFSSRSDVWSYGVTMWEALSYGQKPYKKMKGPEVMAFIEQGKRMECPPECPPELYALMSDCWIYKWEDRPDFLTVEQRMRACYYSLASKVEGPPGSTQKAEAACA
As to the kind of experiment: Kinase inhibition assay (33P transfer), Zap-70. The note with it: read-out: Zap-1. Put shortly: as §1

A further test deals with T3, Itk (Homo sapiens, UniProt Q08881).
T3 construct: Kinases are expressed as either kinase domains or full length constructs; made in house
T3 sequence (Q08881 1-620): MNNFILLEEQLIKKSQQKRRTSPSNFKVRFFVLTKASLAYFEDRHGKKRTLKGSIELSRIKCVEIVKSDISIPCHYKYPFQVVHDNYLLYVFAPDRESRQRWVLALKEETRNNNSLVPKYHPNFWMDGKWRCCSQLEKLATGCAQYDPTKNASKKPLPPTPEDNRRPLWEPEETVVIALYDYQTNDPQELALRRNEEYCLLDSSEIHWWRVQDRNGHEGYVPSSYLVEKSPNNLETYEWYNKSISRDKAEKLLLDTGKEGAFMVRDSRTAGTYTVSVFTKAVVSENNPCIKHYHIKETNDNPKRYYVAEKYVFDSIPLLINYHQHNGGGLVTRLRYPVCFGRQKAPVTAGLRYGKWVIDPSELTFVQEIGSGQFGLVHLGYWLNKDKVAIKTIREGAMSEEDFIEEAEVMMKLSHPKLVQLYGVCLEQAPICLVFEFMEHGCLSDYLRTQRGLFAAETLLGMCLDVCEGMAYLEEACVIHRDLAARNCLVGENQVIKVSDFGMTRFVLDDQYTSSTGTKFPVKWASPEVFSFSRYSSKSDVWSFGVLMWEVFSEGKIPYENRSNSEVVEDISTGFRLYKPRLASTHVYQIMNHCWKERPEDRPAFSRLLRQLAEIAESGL
As to the kind of experiment: Kinase inhibition assay (33P transfer), Itk. The note with it: read-out: Itk-1. Put shortly:
(§2)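 Kinase domains or full-length enzymes, GST- or polyHis-tagged, were expressed in E. coli or baculovirus High Five cells and affinity-purified. Transfer of 33PO4 from ATP onto plate-bound poly(Glu,Tyr) 4:1 or poly(Arg,Ser) 3:1 was counted by liquid scintillation after a 0.5% phosphoric acid wash. IC50 = concentration halving incorporation.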

The target in another test is T4, EGFR (Homo sapiens, UniProt P00533).
T4 construct: Kinases are expressed as either kinase domains or full length constructs; made in house
T4 sequence (P00533 25-1210, species assumed): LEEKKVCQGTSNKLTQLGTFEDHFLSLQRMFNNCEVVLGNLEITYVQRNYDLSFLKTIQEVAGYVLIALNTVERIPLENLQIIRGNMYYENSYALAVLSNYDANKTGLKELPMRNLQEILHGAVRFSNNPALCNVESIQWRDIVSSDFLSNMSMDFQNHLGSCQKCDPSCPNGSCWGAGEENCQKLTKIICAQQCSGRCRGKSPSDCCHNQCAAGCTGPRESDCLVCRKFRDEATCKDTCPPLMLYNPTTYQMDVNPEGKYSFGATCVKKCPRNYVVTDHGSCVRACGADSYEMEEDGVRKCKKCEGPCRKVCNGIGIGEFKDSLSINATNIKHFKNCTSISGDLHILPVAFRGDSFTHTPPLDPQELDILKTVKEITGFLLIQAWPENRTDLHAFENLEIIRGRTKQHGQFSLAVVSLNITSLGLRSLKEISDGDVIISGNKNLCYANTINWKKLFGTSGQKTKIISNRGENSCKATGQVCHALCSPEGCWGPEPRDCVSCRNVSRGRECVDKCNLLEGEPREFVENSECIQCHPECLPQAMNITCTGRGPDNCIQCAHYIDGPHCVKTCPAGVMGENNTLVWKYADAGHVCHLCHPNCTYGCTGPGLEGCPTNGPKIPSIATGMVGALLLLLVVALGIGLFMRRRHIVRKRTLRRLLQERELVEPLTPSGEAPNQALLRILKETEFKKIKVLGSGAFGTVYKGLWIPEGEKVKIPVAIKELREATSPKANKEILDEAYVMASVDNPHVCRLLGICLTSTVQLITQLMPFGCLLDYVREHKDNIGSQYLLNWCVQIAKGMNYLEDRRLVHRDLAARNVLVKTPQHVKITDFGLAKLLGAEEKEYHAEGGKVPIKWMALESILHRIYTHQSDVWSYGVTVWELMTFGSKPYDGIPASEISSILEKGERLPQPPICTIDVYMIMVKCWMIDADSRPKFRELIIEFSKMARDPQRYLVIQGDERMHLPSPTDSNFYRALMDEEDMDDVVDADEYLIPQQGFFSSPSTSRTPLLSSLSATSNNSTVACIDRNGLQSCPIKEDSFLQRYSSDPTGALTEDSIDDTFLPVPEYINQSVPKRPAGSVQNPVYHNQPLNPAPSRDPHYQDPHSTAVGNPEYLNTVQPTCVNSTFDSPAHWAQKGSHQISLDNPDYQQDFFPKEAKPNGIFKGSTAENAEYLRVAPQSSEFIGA
As to the kind of experiment: Kinase inhibition assay (33P transfer), EGFR. The note with it: Table 2, kinase inhibition class; read-out: EGFR-1. An outline of the steps:
as §2

The next test addresses T5, ErbB2 (Homo sapiens, UniProt P04626).
T5 construct: Kinases are expressed as either kinase domains or full length constructs; made in house
Kind of test: Kinase inhibition assay (33P transfer), ErbB2. The note with it: read-out: ErbB2-2. The text has this:
The inhibitor compounds described herein are screened in the following manner. Kinases suitable for use in the following protocol to determine kinase activity of the compounds described herein include, -but are not limited to: Lck, Lyn, Src, Fyn, Syk, Zap-70, Itk, Tec, Btk, EGFR, ErbB2, Kdr, Flt-1, Flt-3, Tek, c-Met, InsR, and AKT.
Kinases are expressed as either kinase domains or full length constructs fused to glutathione S-transferase (GST) or polyHistidine tagged fusion proteins in either E. colior Baculovirus-High Five expression systems. They are purified to near homogeneity by affinity chromatography essentially as previously described (Lehr et al., 1996; Gish et al., 1995). In some instances, kinases are co-expressed or mixed with purified or partially purified regulatory polypeptides prior to measurement of activity.
Kinase activity and inhibition are measured essentially by established protocols (Braunwalder et al., 1996). Briefly, The transfer of ^33PO4 from ATP to the synthetic substrates poly(Glu, Tyr) 4:1 or poly(Arg, Ser) 3:1 attached to the bioactive surface of microtiter plates serves as the basis to evaluate enzyme activity. After an incubation period, the amount of phosphate transferred is measured by first washing the plate with 0.5% phosphoric acid, adding liquid scintillant, and then counting in a liquid scintillation detector. The IC50 is determined by the concentration of compound that causes a 50% reduction in the amount of […] incorporated onto the substrate bound to the plate.

The next test concerns the target T6, Kdr (Homo sapiens, UniProt P35968).
T6 construct: Kinases are expressed as either kinase domains or full length constructs; made in house
As to the kind of experiment: Kinase inhibition assay (33P transfer), Kdr. The note with it: read-out: KDR-1. Put shortly: as §1

In a further test the target is T7, c-Met (Homo sapiens, UniProt P08581).
T7 construct: Kinases are expressed as either kinase domains or full length constructs; made in house
T7 sequence (P08581 25-1390): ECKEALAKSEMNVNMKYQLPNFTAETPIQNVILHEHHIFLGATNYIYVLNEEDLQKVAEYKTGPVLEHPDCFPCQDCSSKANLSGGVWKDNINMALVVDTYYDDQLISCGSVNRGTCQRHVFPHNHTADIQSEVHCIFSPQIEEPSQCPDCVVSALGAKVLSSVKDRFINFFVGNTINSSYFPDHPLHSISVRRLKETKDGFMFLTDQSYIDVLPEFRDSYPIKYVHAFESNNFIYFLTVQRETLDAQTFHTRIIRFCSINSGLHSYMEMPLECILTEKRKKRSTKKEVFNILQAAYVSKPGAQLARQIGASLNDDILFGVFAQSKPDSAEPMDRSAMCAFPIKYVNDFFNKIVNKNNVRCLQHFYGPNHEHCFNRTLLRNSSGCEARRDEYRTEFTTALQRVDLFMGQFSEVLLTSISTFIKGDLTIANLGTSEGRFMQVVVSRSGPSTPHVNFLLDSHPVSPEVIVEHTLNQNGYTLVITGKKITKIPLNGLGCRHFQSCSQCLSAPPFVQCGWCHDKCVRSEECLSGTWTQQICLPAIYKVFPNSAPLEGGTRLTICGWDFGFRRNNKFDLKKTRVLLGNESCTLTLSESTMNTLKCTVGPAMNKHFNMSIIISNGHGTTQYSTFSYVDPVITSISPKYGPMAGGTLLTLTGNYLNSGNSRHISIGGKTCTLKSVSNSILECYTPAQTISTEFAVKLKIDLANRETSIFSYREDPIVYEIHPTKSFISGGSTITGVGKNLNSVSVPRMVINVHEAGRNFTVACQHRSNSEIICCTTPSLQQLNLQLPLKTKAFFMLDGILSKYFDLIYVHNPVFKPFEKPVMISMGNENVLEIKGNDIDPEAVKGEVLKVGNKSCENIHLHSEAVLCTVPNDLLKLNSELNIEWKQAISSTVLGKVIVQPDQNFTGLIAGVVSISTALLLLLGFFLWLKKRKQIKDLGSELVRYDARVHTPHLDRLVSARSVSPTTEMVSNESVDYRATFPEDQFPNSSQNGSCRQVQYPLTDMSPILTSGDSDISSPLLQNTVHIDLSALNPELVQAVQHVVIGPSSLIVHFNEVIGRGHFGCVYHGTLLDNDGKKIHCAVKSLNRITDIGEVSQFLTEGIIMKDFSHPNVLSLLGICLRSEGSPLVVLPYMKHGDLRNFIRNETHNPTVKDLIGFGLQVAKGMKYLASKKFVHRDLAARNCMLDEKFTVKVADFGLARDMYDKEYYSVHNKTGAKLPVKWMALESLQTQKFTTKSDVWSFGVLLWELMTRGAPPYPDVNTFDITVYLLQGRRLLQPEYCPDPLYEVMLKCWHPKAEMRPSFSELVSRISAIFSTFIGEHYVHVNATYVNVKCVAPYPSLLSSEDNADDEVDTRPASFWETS
Kind of test: Kinase inhibition assay (33P transfer), c-Met. The note with it: Table 2, kinase inhibition class; read-out: Met-1. An outline of the steps:
as §2

The target of a further test is T8, AKT (Homo sapiens, UniProt Q9Y243).
T8 construct: Kinases are expressed as either kinase domains or full length constructs; made in house
T8 sequence (Q9Y243 whole entry, the tested form may be a part): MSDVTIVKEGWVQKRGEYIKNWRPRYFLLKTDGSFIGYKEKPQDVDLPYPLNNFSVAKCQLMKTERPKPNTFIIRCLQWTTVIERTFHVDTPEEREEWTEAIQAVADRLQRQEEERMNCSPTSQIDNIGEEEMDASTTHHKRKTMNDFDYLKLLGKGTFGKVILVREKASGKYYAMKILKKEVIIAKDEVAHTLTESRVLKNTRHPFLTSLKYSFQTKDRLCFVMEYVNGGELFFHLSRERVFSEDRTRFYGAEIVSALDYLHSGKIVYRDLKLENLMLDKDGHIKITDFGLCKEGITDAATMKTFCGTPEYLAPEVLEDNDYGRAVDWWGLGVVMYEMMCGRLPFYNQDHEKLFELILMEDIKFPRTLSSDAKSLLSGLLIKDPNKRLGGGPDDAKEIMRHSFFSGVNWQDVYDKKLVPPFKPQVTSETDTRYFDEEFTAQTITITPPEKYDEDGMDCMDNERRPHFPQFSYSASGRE
As to the kind of experiment: Kinase inhibition assay (33P transfer), AKT. The note with it: Table 2, kinase inhibition class; read-out: AKT3-1. Put shortly:
as §1

The target of a further test is T9, IGFR-1 (Homo sapiens, UniProt P08069).
T9 construct: Kinases are expressed as either kinase domains or full length constructs; made in house
T9 sequence (P08069 31-1367): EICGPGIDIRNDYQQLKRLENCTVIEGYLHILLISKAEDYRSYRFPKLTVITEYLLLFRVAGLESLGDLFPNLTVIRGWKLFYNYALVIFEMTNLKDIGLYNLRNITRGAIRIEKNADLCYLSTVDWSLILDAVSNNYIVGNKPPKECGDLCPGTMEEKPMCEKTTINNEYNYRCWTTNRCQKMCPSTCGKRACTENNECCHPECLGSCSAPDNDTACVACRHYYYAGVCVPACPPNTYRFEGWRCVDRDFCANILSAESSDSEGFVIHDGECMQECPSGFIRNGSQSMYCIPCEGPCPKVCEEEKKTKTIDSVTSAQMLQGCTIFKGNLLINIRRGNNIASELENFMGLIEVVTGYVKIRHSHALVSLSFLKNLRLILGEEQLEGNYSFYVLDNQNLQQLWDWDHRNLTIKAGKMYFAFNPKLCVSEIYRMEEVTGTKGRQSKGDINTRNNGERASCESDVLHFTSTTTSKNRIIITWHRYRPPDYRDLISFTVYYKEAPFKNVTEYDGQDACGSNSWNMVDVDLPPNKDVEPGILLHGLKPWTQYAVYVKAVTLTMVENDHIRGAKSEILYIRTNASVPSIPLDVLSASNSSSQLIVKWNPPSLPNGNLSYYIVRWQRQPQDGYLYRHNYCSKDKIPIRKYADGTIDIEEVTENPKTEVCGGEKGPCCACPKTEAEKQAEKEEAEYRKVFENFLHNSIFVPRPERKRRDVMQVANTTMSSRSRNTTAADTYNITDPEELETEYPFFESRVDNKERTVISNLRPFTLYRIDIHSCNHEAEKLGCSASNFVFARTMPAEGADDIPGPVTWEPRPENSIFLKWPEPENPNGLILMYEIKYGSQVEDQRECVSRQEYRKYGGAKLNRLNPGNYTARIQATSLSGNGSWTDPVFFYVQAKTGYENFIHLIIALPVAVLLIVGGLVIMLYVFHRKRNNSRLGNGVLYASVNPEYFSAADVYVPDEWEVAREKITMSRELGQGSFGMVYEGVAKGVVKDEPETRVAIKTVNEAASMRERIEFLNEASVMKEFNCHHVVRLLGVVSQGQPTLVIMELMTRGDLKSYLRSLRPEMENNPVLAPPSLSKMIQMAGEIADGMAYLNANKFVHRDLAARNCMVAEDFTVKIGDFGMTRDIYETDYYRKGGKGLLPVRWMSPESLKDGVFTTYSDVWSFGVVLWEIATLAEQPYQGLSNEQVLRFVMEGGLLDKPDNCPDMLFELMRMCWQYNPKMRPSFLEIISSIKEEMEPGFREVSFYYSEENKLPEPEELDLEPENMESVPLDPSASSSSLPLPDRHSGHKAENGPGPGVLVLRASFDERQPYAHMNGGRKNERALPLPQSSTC
Kind of test: Kinase inhibition assay, IGFR-1 (Table 2). The note with it: Table 2, kinase inhibition class.

The target of the next test is T10, PDGFRB (Homo sapiens, UniProt P09619).
T10 construct: Kinases are expressed as either kinase domains or full length constructs; made in house
As to the kind of experiment: Kinase inhibition assay (33P transfer), PDGFRB. The note with it: read-out: PDGFRB-1.

Structures are written as SMILES.

T1 sequence (P06239 whole entry, species assumed, the tested form may be a part): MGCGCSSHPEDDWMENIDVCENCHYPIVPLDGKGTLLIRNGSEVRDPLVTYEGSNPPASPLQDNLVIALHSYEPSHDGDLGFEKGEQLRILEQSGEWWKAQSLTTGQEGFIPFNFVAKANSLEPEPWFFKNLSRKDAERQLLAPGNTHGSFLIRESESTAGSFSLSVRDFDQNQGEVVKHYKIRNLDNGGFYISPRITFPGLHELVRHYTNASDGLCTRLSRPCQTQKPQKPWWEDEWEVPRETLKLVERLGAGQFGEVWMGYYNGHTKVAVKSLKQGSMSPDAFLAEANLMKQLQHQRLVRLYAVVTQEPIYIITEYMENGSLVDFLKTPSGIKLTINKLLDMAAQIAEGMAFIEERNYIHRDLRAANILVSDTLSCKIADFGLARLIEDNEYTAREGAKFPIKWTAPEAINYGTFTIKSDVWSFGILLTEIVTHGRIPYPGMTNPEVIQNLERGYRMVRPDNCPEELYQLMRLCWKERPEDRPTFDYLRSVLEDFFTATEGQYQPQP

For the compound `CN(c1cccc(Cl)c1)c1ncnc(Nc2ccc(F)c(Cl)c2)n1` [Compound 703], the IC50 at Lck was more than 12.4 µM; at Zap-70 it was more than 12.4 µM; on Itk, more than 12.4 µM; on EGFR it was less than 1.1 µM; on ErbB2 it was 9.61 to 12.4 µM; on Kdr, more than 12.4 µM. Besides, the IC50 on c-Met, on AKT, against IGFR-1 and on PDGFRB was more than 12.4 µM in each case.
For the compound `COc1cc(Nc2ncnc(-n3c(Nc4cccc(F)c4)nc4ccccc43)n2)cc(OC)c1OC` [Compound 1053], the IC50 at Lck is 0.821 to 4.92 µM; at Zap-70, more than 9.23 µM; at Itk, more than 9.23 µM; at EGFR, 4.92 to 7.18 µM; at ErbB2, more than 9.23 µM; at Kdr it was less than 0.821 µM. Further, the IC50 at c-Met is more than 9.23 µM; at AKT, more than 9.23 µM; on IGFR-1 it was more than 9.23 µM; at PDGFRB, less than 0.821 µM.
Take `Fc1ccc(Nc2ncnc(Nc3ccc4cn[nH]c4c3)n2)cc1Cl` [Compound 719]: the IC50 on Lck is more than 12.6 µM; on Zap-70, more than 12.6 µM; at Itk, more than 12.6 µM; on EGFR, less than 1.12 µM; on ErbB2 it was 6.75 to 9.84 µM; on Kdr it was 1.12 to 6.75 µM. The IC50 at c-Met, on AKT, against IGFR-1 and at PDGFRB was more than 12.6 µM throughout.
For `CN(C)CCNc1ncnc(Nc2ccc3c(cnn3Cc3ccccc3)c2)n1` [Compound 733], the IC50 is more than 11.6 µM at Lck; more than 11.6 µM on Zap-70; more than 11.6 µM on Itk; 1.03 to 6.18 µM on EGFR; more than 11.6 µM at ErbB2; more than 11.6 µM at Kdr. Besides, the IC50 at c-Met, at AKT, on IGFR-1 and at PDGFRB was more than 11.6 µM each time.
Consider `c1ccc(CNc2nc3ccccc3n2-c2ncnc(Nc3cccc(Cc4nnn[nH]4)c3)n2)cc1` [Compound 957], for which the IC50 at Lck was 0.841 to 5.05 µM; at Zap-70 it was 5.05 to 7.36 µM; on Itk, 0.841 to 5.05 µM; on EGFR, less than 0.841 µM; on ErbB2, less than 0.841 µM; at Kdr, less than 0.841 µM. In addition, the IC50 at c-Met was 0.841 to 5.05 µM; on AKT, 0.841 to 5.05 µM; at IGFR-1 it was 0.841 to 5.05 µM; at PDGFRB, less than 0.841 µM.
Turning to `Cc1ccc2c(c1)CCCN2c1ncnc(NCCc2cccnc2)n1` [Compound 775], the IC50 at Lck, at Zap-70, at Itk, at EGFR, at ErbB2 and on Kdr was more than 13 µM throughout. Besides, the IC50 at c-Met, at AKT, against IGFR-1 and at PDGFRB was more than 13 µM each time.
With `COc1cc(Nc2ncnc(-n3c(NCc4ccc5c(c4)OCO5)nc4ccccc43)n2)cc(OC)c1OC` [Compound 595], the IC50 at Lck was 6.63 to 8.53 µM; at Zap-70, more than 8.53 µM; on Itk it was more than 8.53 µM; on EGFR, more than 8.53 µM; on ErbB2, 0.758 to 4.55 µM; at Kdr, 0.758 to 4.55 µM. The IC50 was more than 8.53 µM on c-Met, 4.55 to 6.63 µM at AKT, more than 8.53 µM at IGFR-1 and 6.63 to 8.53 µM at PDGFRB.
In the case of `COc1cc(Nc2ncnc(-n3c(NC4CCCc5ccccc54)nc4ccccc43)n2)cc(OC)c1OC` (stereo not drawn) [Compound 1043], the IC50 on Lck was 4.58 to 6.68 µM; at Zap-70, more than 8.59 µM; at Itk, more than 8.59 µM; at EGFR it was 6.68 to 8.59 µM; on ErbB2, 0.764 to 4.58 µM; on Kdr, 0.764 to 4.58 µM. Also, the IC50 was more than 8.59 µM on c-Met, more than 8.59 µM on AKT, 6.68 to 8.59 µM at IGFR-1 and 4.58 to 6.68 µM at PDGFRB.
Regarding `COc1cc(Nc2ncnc(-n3c(Nc4ccc(OC(F)(F)F)cc4)nc4ccccc43)n2)cc(OC)c1OC` [Compound 1050], the IC50 at Lck was more than 8.13 µM; at Zap-70, more than 8.13 µM; on Itk it was more than 8.13 µM; on EGFR, 4.34 to 6.32 µM; at ErbB2 it was 4.34 to 6.32 µM; at Kdr it was 0.723 to 4.34 µM. The IC50 was 4.34 to 6.32 µM at c-Met, more than 8.13 µM on AKT, more than 8.13 µM on IGFR-1 and 0.723 to 4.34 µM at PDGFRB.
With `COc1cc(Nc2ncnc(NC3CCc4ccccc43)n2)cc(OC)c1OC` (stereo not drawn) [Compound 581], the IC50 at Lck is 1.02 to 6.1 µM; on Zap-70, more than 11.4 µM; at Itk it was more than 11.4 µM; at EGFR, 1.02 to 6.1 µM; on ErbB2 it was more than 11.4 µM; on Kdr, 8.9 to 11.4 µM. Also, the IC50 was more than 11.4 µM at c-Met, more than 11.4 µM on AKT, more than 11.4 µM against IGFR-1 and 6.1 to 8.9 µM on PDGFRB.
Take `COc1cc(Nc2ncnc(N(C)c3ccc(F)c(Cl)c3)n2)cc(OC)c1OC` [Compound 710]: the IC50 on Lck is less than 0.953 µM; on Zap-70, more than 10.7 µM; at Itk, more than 10.7 µM; at EGFR, less than 0.953 µM; on ErbB2, less than 0.953 µM; at Kdr, 0.953 to 5.72 µM. In addition, the IC50 was 0.953 to 5.72 µM at c-Met, more than 10.7 µM on AKT, 5.72 to 8.34 µM on IGFR-1 and 0.953 to 5.72 µM at PDGFRB.
Regarding `COc1cccc(Nc2ncnc(N(C)c3cccc(Cl)c3)n2)c1` [Compound 741], the IC50 at Lck was 7.02 to 10.2 µM; at Zap-70 it was more than 13.2 µM; on Itk, more than 13.2 µM; at EGFR, less than 1.17 µM; at ErbB2 it was 1.17 to 7.02 µM; at Kdr it was more than 13.2 µM. Moreover, the IC50 was more than 13.2 µM on c-Met, more than 13.2 µM on AKT, more than 13.2 µM against IGFR-1 and 7.02 to 10.2 µM on PDGFRB.
